We go through four compounds from ChEMBL document CHEMBL5033999, “Eriodictyol-Amplified 67-kDa Laminin Receptor Signaling Potentiates the Antiallergic Effect of O-Methylated Catechin” (J Nat Prod, 2021).

In test [1] the test system is RBL-2H3. Put plainly: Inhibition of DNP-HAS-stimulated mast cell degranulation in rat RBL-2H3 cells assessed as reduction in beta-hexosaminidase release at 0.1 uM. The class given is functional, cell-based.
Test [2] relates to RBL-2H3. Put plainly: Inhibition of DNP-HAS-stimulated mast cell degranulation in rat RBL-2H3 cells assessed as induction of ASM activation at 0.1 uM. In kind it is functional, cell-based.
The test system of test [3] is RBL-2H3. The experiment in a line: Inhibition of DNP-HAS-stimulated mast cell degranulation in rat RBL-2H3 cells assessed as reduction in beta-hexosaminidase release at 0.01 to 1 uM. The class given is functional, cell-based. The following applies: dose 0.01-1 µM.
For another test, the system named is Mus musculus. The experiment in a line: Inhibition of IgE/Ag-mediated immediate hypersensitivity reaction in BALB/c mouse assessed as change in the level of skin extravasation at 0 to 4 mg/kg, po administered 1 hr prior to Ag challenge. In kind it is functional, organism-based. The following applies: dose 0-4 mg/kg.
Test [4] concerns RBL-2H3. Put plainly: Inhibition of DNP-HAS-stimulated mast cell degranulation in rat RBL-2H3 cells assessed as reduction in beta-hexosaminidase release pre-treated with 5 uM sGC inhibitor NS2028 for 1 hr followed by compound treatment at 25 uM for 3 hrs. The class given is functional, cell-based.
Test [5] relates to RBL-2H3. The experiment in a line: Inhibition of DNP-HAS-stimulated mast cell degranulation in rat RBL-2H3 cells assessed as reduction in beta-hexosaminidase release at 0.5 uM in presence of 0.1 uM eriodictyol. The class given is functional, cell-based.
The test system of test [6] is RBL-2H3. The experiment in a line: Inhibition of DNP-HAS-stimulated mast cell degranulation in rat RBL-2H3 cells assessed as induction of ASM activation at 0.5 uM. In kind it is functional, cell-based.
The test system of test [7] is RBL-2H3. Put plainly: Inhibition of mast cell degranulation in rat RBL-2H3 cells assessed as induction of ASM activation pre-treated with anti-67LR antibody for 3 hrs followed by compound treatment at 25 uM for 3 hrs. The class given is functional, cell-based.
In test [8] the test system is RBL-2H3. The experiment in a line: Inhibition of DNP-HAS-stimulated mast cell degranulation in rat RBL-2H3 cells assessed as reduction in beta-hexosaminidase release at 1 to 25 uM incubated for 3 hrs followed by DNP-HAS stimulation for 1 hr. The class given is functional, cell-based. The conditions noted are these: dose 1-25 µM.
The test system of test [9] is RBL-2H3. The experiment in a line: Inhibition of DNP-HAS-stimulated mast cell degranulation in rat RBL-2H3 cells assessed as induction of ASM activation at 0.5 uM in presence of 0.1 uM eriodictyol. The class given is functional, cell-based.
The test system of test [10] is RBL-2H3. Put plainly: Inhibition of mast cell degranulation in rat RBL-2H3 cells assessed as induction of ASM activation at 1 to 25 uM incubated for 3 hrs measured by TLC analyses. In kind it is functional, cell-based. The following applies: dose 1-25 µM.
Test [11] relates to RBL-2H3. The experiment in a line: Inhibition of DNP-HAS-stimulated mast cell degranulation in rat RBL-2H3 cells assessed as reduction in beta-hexosaminidase release at 0.5 uM. In kind it is functional, cell-based.
For test [12], the system named is RBL-2H3. Put plainly: Inhibition of mast cell degranulation in rat RBL-2H3 cells assessed as reduction in beta-hexosaminidase release pre-treated with 5 uM ASM-specific inhibitor desipramine for 3 hrs followed by compound treatment at 25 uM for 3 hrs. The class given is functional, cell-based.
Test [13] concerns RBL-2H3. Put plainly: Inhibition of DNP-HAS-stimulated mast cell degranulation in rat RBL-2H3 cells assessed as reduction in beta-hexosaminidase release at 1 uM incubated for 3 hrs. The class given is functional, cell-based.

Activity calls are given as the source filed them. The rule behind the calls is not given here.

As for `O=C1C[C@@H](c2ccc(O)c(O)c2)Oc2cc(O)cc(O)c21`, the inhibition result in the test with RBL-2H3 [1], in the test on RBL-2H3 [2] and in the test on RBL-2H3 [3] was “inactive” each time.

Take `O=C1C[C@@H](c2ccc(O)c(O)c2)Oc2cc(O[C@@H]3O[C@H](CO)[C@@H](O)[C@H](O)[C@H]3O)cc(O)c21`: the inhibition result with Mus musculus was “inactive”.

`COc1cc(C(=O)O[C@@H]2Cc3c(O)cc(O)cc3O[C@@H]2c2cc(O)c(O)c(O)c2)cc(O)c1O`: the inhibition result in the test with RBL-2H3 [4], in the test on RBL-2H3 [6], with RBL-2H3 [7], with RBL-2H3 [11] and in the test with RBL-2H3 [12] was “inactive” each time. The inhibition entry in the test with RBL-2H3 [5], in the test with RBL-2H3 [8], in the test on RBL-2H3 [9] and in the test on RBL-2H3 [10] was “Active” throughout.

For `Nc1nc(-c2nn(Cc3ccccc3F)c3ncccc23)ncc1C1CC1`, the inhibition result with RBL-2H3 [13] is “Active”.
